Data as given in patent US20250144179A1, “PEPTIDE HORMONE TO PREVENT OR TREAT VASOSPASM, BRAIN INJURY OR CEREBRAL EDEMA” (UNIVERSITY OF FLORIDA RESEARCH FOUNDATION, INCORPORATED, priority 2022, published 2025).

Columns and labels:
Type in all cases: in vivo, mouse
occludin = assay: Western blot of occludin in brain after SAH; conditions: wild-type mice, adropin 450 nmol/kg i.p. vs vehicle
Protocol: (§1) Synthetic adropin^34-76 peptide was supplied from Bachem (Bubendorf, Switzerland) and diluted in 0.1% BSA in saline. 0.1% BSA in saline was used as vehicle control for all experiments. Adropin (450 nmol/kg) or an equivalent volume of vehicle was delivered via intraperitoneal injection 15 minutes post-SAH. For experiments ending at 24 hours post-SAH, an identical dose of adropin/vehicle was given again 12 hours later. For experiments ending 7 days post-SAH, adropin/vehicle was given again on days 1, 3 & 5 post-SAH. In the aneurysm rupture model, adropin was given at a dose of 450 nmol/kg starting 3 days before aneurysm induction (elastase injection). Adropin was given every other day until sacrifice
(§2) SAH was modeled using the anterior circulation single autologous blood injection method^25,33 with minor adjustments. Mice were anesthetized with ketamine (100 mg/kg) and xylazine (10 mg/kg) before removing hair from scalp and cleaning with serial betadine—saline washes. The tail was also prepped from the base extending 1 cm distally. Mice were then fixed into a stereotaxic frame and body temperature maintained at 37° C. The scalp was incised along the sagittal suture from bregma to the nasal bone. […]
At 24 hours or 7 days post-SAH, mice were deeply anesthetized and perfused with 10 mL of ice-cold PBS. […] Samples were centrifuged, supernatant collected, and protein quantified via Bradford assay. […]

[1] = tested on: wild-type mice, SAH model; assay: Sodium fluorescein extravasation assay (blood-brain barrier permeability) after SAH; conditions: 24 hours post-SAH, adropin 450 nmol/kg i.p.
Protocol: as §1
as §2, with “bone. The skin was reflected and a burr hole was drilled 5.0 mm rostral of bregma and 0.5 mm right laterally to avoid puncturing dural venous sinuses.” for “bone.”

[2] = tested on: wild-type mice, SAH model; assay: Corner-turn preference test (sensorimotor deficits) after SAH
Protocol: Synthetic adropin^34-76 peptide was supplied from Bachem (Bubendorf, Switzerland) and diluted in 0.1% BSA in saline. 0.1% BSA in saline was used as vehicle control for all experiments. […] For experiments ending at 24 hours post-SAH, an identical dose of adropin/vehicle was given again 12 hours later. For experiments ending 7 days post-SAH, adropin/vehicle was given again on days 1, 3 & 5 post-SAH. In the aneurysm rupture model, adropin was given at a dose of 450 nmol/kg starting 3 days before aneurysm induction (elastase injection). Adropin was given every other day until sacrifice
as §2, with “bone. The skin was reflected and a burr hole was drilled 5.0 mm rostral of bregma and 0.5 mm right laterally to avoid puncturing dural venous sinuses.” for “bone.”

Which results are given for “adropin (CHSRSADVDSLSESSPNSSPGPCPEKAPPPQKPSHEGSYLLQP) [Synthetic adropin^34-76 peptide from Bachem]”?
occludin expression (immunoblot) (occludin): preserved the expression of occludin; barrier permeability, average area of positive fluorescein signal [1]: adropin treatment reduced this effect; sensorimotor deficits ([2]; treatment initiated at 24 hours post-SAH): ability of adropin treatment to improve sensorimotor deficits was maintained; corner turn preference (sensorimotor deficit) ([2]; up to one week post-SAH, treatment started 15 minutes post-SAH): reducing this sensorimotor deficit and normalizing corner turn preference
